Literature values as cited in patent US20080038252A1, “Histamine-Containing Composition for the Treatment of Allergic Diseases” (priority 2005, published 2008).

Test system: allergy animal model
Details: same amount as in the complex, administered alone to the allergy animal model (Yoshii)

In the case of NCCc1c[nH]cn1 [histamine], the anti-inflammatory effect is given as “not produced”.
